Here are results for three molecules from patent publication US7247712B2, “Complex of hepatitis B virus-specific antigenic peptides associated with heat shock proteins and the application thereof” (priority 2000, dated 2007).

In one experiment the test system is BALB/cJ mice (H-2d). The experiment can be described thus: Immunization in mice followed by cytotoxicity (CTL) analysis, standard 4-h 51Cr release assay. The experiment is classed as in vivo. Here is the method:
FIG. 1. Specific CTL response of BALB/cJ(H-2^d) mice after immunized with 7-mer peptied and gp96-7 mer peptide complex seven days. The lysis percentage of effector cells to specific target cells was measurated in a standard 4-h ^51Cr release assay. The lysis percent rate of the figure is the mean percentage of 10 mice.
BALB/cJ mice (H-2^d) 12-16 weeks old were used in this studies.
Sample was solubilized in 100 μl PBS and was injected subcutaneously in the neck back area of each mouse.
Therefore, we adopted the immunological manner of subcutaneous injection. The 7-mer peptide was dissolved in buffer (90% PBS, 10% DMSO/0.1% TFA) and gp96-7 mer peptide complex was dissolved in PBS buffer and then shaked severely for 1 minute before injection. For each mouse, the immunization dosage of 7-mer peptide was 0.2 nmol, 2 nmol and 20 nmol, respectively, the mice were immunized with peptide and Freund's after emulsion. The immunization dosage of gp96-7 mer peptide complex was 0.01 nmol, 0.05 nmol, 0.10 nmol and 0.50 nmol, respectively, the mice were immunized with subcutaneous injection in neck back area, and the second enhanced immunization was performed after one week from the first immunization, then cytotoxicity analysis was performed after 7 days. Each treatment group consisted of 10 mice. […]

For experiment [1], the target named is T1, gp96 protein purified from human liver tissues (human, UniProt P14625 22-803).
T1 construct: Native protein from tissue, over 95% purity; also called purified gp96 protein
T1 sequence (P14625 22-803 limits assumed): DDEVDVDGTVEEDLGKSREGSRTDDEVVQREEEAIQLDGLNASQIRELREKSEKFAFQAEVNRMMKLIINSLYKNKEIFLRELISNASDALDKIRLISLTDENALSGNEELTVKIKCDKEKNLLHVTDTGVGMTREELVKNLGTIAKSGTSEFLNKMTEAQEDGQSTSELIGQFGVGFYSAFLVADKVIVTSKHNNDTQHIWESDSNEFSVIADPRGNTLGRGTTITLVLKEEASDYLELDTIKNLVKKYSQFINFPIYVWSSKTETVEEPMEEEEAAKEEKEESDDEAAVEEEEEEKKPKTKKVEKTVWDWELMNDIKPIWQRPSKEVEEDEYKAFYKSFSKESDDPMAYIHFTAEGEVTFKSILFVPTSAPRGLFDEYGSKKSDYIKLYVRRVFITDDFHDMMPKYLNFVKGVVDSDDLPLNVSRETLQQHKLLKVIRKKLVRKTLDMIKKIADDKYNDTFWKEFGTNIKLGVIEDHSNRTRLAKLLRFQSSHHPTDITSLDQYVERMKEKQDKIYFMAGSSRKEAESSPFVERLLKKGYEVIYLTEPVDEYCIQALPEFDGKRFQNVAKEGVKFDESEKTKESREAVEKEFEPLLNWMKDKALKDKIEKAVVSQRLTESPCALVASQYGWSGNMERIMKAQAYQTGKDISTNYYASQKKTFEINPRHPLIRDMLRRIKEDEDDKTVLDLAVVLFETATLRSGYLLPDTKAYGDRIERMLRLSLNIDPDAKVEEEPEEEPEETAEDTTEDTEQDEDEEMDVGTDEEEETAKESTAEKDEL
The experiment can be described thus: non-covalently bound peptides eluted with TFA from gp96 purified from HBV-infected liver cancer tissues, HPLC peak, MALDI-TOF, microsequencing.

Entries after “also recorded” stand apart in the source; their conditions may differ.

“YVNTNMG [7-mer peptide, 7-mer peptide “YVNTNMG or YVNVNMG”, amino acid residues 88-94 of the core protein of HBV]”: in the experiment with BALB/cJ mice (H-2d) (Freund's incomplete adjuvant, Freund's complete adjuvant, chromium alum), the “effect of adjuvant on immunogenicity” value was “can improve the immunological activity of it significantly”. Moreover, the “specific cytotoxic T lymphocyte (CTL) response in mice after immunization” value with BALB/cJ mice (H-2d) (subcutaneous immunization, 51Cr release assay) was “can elicit the specific CTL response in mice; also recorded: can elicit the specific cytotoxic T lymphocytes in mice”.

B1: 7-mer peptide YVNTNMG (HBV core protein 88-94) (peptide)
peptide: YVNTNMG
notes: Eluted from tissue gp96 and also synthesized
For the molecule B1, the binding result in experiment [1] is listed as “binds”.

With YVNVNMG (Printed as the alternative to YVNTNMG) [7-mer peptide YVNVNMG (HBV core protein 88-94)], the binding result in experiment [1] is given as “binds”.
